Test results reported in US20250108213A1, “COMPOSITIONS AND METHODS FOR ENHANCING THE EFFECT OF PLATINUM-BASED SYSTEMIC THERAPY” (NOVOCURE GMBH, priority 2023, published 2025).
Entries after “also recorded” stand apart in the source; their conditions may differ. Read-outs that look alike come from different tables or passages of the source.

Legend:
[1] = test system: γH2AX foci in cell nuclei; experiment: DNA damage examination by fluorescence microscopy; assay type: cell-based, human
Experimental: For DNA damage and cell cycle examination, the following drug concentrations were selected: For A2780—6 μM carboplatin, 1 μM olaparib, and 0.5 μM niraparib; For OVCAR-3-16 μM carboplatin, 0.5 μM olaparib, and 0.8 μM niraparib; For A2780cis—36 μM carboplatin, 10 μM olaparib, and 1.5 μM niraparib. Treated cells were fixed with 4% paraformaldehyde for 10 min, permeabilized for 20 min with 0.5% Triton X-100 in PBS, and blocked with donkey serum (PBS with 0.3% Triton X-100 and donkey serum 1:100). Cells were incubated at 4° C. overnight with anti-γH2AX antibody (Cell Signaling, Danvers, MA, USA; #9718, 1:400), followed by incubation at room temperature for 1 hr with Alexa Flour 488-conjugated secondary antibody (Jackson Immunoresearch, Cambridge, UK; #711-545-152, 1:500) and […] 4′,6-diamidino-2-phenylindole (DAPI; Sigma Aldrich, Rehovot, Israel). LSM 700 laser scanning confocal system (Zeiss, Gottingen, Germany) was utilized to obtain images, and the mean number of foci per nucleus was determined using the FIJI software with the BioVoxxel plugin.

OVCAR-3 cells [2] = conditions: for effect of TTFields on the drug-induced overall effect (cell count x colony formation) / effect of TTFields on the drug-induced effect, cell count: TTFields plus drug vs drug alone; for effect of TTFields on the drug-induced effect, cell count: p<0.0001; for sensitivity to drug (cell count dose response): drug alone, compared among A2780, OVCAR-3, A2780cis
Experimental: (§1) Cells were seeded on coverslip (22 mm diameter; 20×10^3 cells/coverslip for A2780 and A2780cis; 40×10^3 cells/coverslip for OVCAR-3). After overnight incubation, the coverslips were transferred into in vitro dishes containing 2 ml of media. TTFields at a frequency of 200 kHz (and intensity of 1 V/cm RMS) were applied to the cells for 72 hr using the INOVITRO system (Novocure, Haifa, Israel).
(§2) For efficacy outcomes (cell count, overall effect, and apoptosis), various concentrations of carboplatin (MCE MedChemExpress, HY-17393), olaparib (Cayman Chemical, 10621), or niraparib (Cayman Chemical, 20842) were applied, with or without TTFields.
(§3) Cell count was examined following treatment using Cytek Northern Lights flow cytometer (Cytek Biosciences, USA).
(§4) Treated cells were harvested, re-plated in 6-well plates (500 cells/well for A2780 and A2780cis; 1000 for cells/well OVCAR-3), and grown for 7 (A2780 and A2780cis) or 21 (OVCAR-3) days. Colonies were stained with 0.5% crystal violet, quantified with ImageJ, and expressed as percentages relative to control. Overall effect was calculated by multiplying colony formation with the corresponding cell count.
(§5) The surviving fraction predicted for an additive effect between TTFields and drug was calculated per the various drug concentrations by multiplying the actual measured surviving fractions for the individual treatments one by the other (SFcalculated additive=SFTTFields×SFdrug; SF are expressed as probability). Based on the calculated values, a trendline was determined. Additivity, synergy, or antagonism was defined when the calculated additive trendline overlapped, was above, or was below the actual measured line for TTFields+drug, respectively.
(§6) For quantifying the magnitude of TTFields-drug interaction, interaction index (Ii) values were calculated by the Bliss independence method using mortality values (Mx=1−SFx). Per the various drug concentrations, mortality predicted for an additive effect between TTFields and drug (Mcalculated additive=MTTFields+Mdrug−MTTFields×Mdrug) was divided by the actual measured mortality for TTFields+drug. Additivity was determined when the 95% confidence interval (CI) overlapped 1, synergy when 95% CI<1, and antagonism when 95% CI>1. Lower Ii values were considered indicative of higher synergy levels.

A2780 cells [3] = conditions: for type of TTFields-drug interaction (measured vs calculated additive curve): HRP cells; for effect of TTFields on the drug-induced overall effect (cell count x colony formation) / effect of TTFields on the drug-induced effect, cell count: TTFields plus drug vs drug alone; for effect of TTFields on the drug-induced effect, cell count: p<0.0001
Experimental: as §1, §2, §3, §4, §5, §6

A2780 cells [4] = experiment: Apoptosis, Annexin V/7-AAD staining, flow cytometer; assay type: cell-based, human; conditions: TTFields applied with drug
Experimental: (§7) Apoptosis: Treated cells were double-stained with FITC-conjugated annexin V (AnnV) and 7-aminoactinomycin D (7AAD), and data acquisition was performed with a flow cytometer.
(§8) Apoptosis was also examined. Treated cells were double-stained with FITC-conjugated annexin V (AnnV) and 7-aminoactinomycin D (7AAD), and data acquisition was performed with a flow cytometer.
(§9) Treated cells were stained with FITC-conjugated Annexin V (AnnV) and 7-Aminoactinomycin D (7-AAD) using a commercial kit (BioLegend, San Diego, CA, USA), according to the manufacturer's instruction. Data acquisition and analysis were done on the Cytek Northern Lights flow cytometer

A2780cis cells [5] = experiment: as above; assay type: cell-based, human; conditions: TTFields applied with drug
Experimental: as §8
Treated cells were double-stained with FITC-conjugated annexin V (AnnV) and 7-aminoactinomycin D (7AAD), and data acquisition was performed with a flow cytometer.
as §9

G2/M cell cycle arrest = experiment: Cell cycle analysis (7-AAD, flow cytometer); assay type: cell-based, human
Experimental: For DNA damage and cell cycle examination, the following drug concentrations were selected: For A2780—6 μM carboplatin, 1 μM olaparib, and 0.5 μM niraparib; For OVCAR-3-16 μM carboplatin, 0.5 μM olaparib, and 0.8 μM niraparib; For A2780cis—36 μM carboplatin, 10 μM olaparib, and 1.5 μM niraparib. Treated cells were fixed with 70% ice-cold ethanol for 30 min, pelleted, washed, and stained for 30 min at 37° C. in phosphate buffered saline (PBS) containing 1% FBS 5 μg/ml 7-AAD (BioLegend), 200 μg/ml RNase, 1 mM EDTA and 0.1% Triton X-100. Data acquisition (at 665/30 nm) and analysis were done on the Cytek Northern Lights flow cytometer and the FlowJo 10.8.1 software (BD Biosciences), respectively.

A2780cis cells [6] = experiment: Cell count and overall effect (cell count x colony formation) after 72 h drug with or without TTFields; assay type: cell-based, human; conditions: for effect of TTFields on the drug-induced overall effect (cell count x colony formation) / effect of TTFields on the drug-induced effect, cell count: TTFields plus drug vs drug alone; for effect of TTFields on the drug-induced effect, cell count: p<0.0001; for sensitivity to drug (cell count dose response) / effect of TTFields on sensitivity to / effect of the drug / type of TTFields-drug interaction (measured vs calculated additive curve): 72 h; for sensitivity to drug (cell count dose response): compared among A2780, OVCAR-3, A2780cis; for effect of TTFields on sensitivity to / effect of the drug: platinum-resistant cell line; for effect of TTFields on sensitivity to / effect of the drug / type of TTFields-drug interaction (measured vs calculated additive curve): TTFields 200 kHz, 1 V/cm RMS; for type of TTFields-drug interaction (measured vs calculated additive curve): platinum-resistant cells
Experimental: (§10) TTFields were applied to the cells for 72 h in the absence or presence of various concentrations of carboplatin. Synergy was defined when the observed value was lower than that predicted for an additive effect (presented by the red dotted line-calculated by multiplying the observed effects for TTFields alone with that for cisplatin alone).
The Cytotoxic effect was also determined. Treated cells were counted using a flow cytometer, and cytotoxic effect was calculated relative to control cells.
Treated cells were harvested, re-plated, and grown for an additional 7-14 days. Colonies were stained (0.5% crystal violet solution), counted, and clonogenic effect was calculated relative to control. The overall effect was calculated by multiplying the cytotoxic and clonogenic effects.
TTFields application was studied. Ovarian carcinoma cells A2780cis (cisplatin resistant cells) were treated for 72 h with TTFields at an intensity of 1 V/cm RMS and a frequency of 200 kHz using the inovitro system (See FIG. 11).
as §10, with “PARPi Olaparib and Niraparib.” for “carboplatin.”
The cytotoxic effect was studied. Treated cells were counted using a flow cytometer, and cytotoxic effect was calculated relative to control cells.
Treated cells were harvested, re-plated, and grown for an additional 7-14 days. Colonies were stained (0.5% crystal violet solution), counted, and clonogenic effect was calculated relative to control. Overall effect was calculated by multiplying the cytotoxic and clonogenic effects.
as §1, §2, §3, §4, §5
For quantifying the magnitude of TTFields-drug interaction, interaction index (Ii) values were calculated by the Bliss independence method using mortality values (Mx=1−SFx). Per the various drug concentrations, mortality predicted for an additive effect between TTFields and drug (Mcalculated additive=MTTFields+Mdrug−MTTFields×Mdrug) was divided by the actual measured mortality for TTFields+drug.

OVCAR-3 cells [7] = experiment: Apoptosis, Annexin V/7-AAD staining, flow cytometer; assay type: cell-based, human; conditions: TTFields applied with drug
Experimental: as §7, §9

[8] = treatment alone, all cell lines (A2780, OVCAR-3, A2780cis), relative to control
[9] = Bliss independence, TTFields plus drug
[10] = TTFields 200 kHz, 1 V/cm RMS, 72 h

N.N.O=C([O-])C1(C(=O)[O-])CCC1.[Pt+2] [carboplatin]
levels of γH2AX foci, monotherapy ([1]; drug alone, OVCAR-3 cells): especially dramatic
levels of γH2AX foci, monotherapy [1, 8]: more pronounced effect
interaction index (Ii), 95% confidence interval (OVCAR-3 cells [2]; [9]): > 1
effect of TTFields on the drug-induced overall effect (cell count x colony formation) (OVCAR-3 cells [2]): significantly elevated
effect of TTFields on the drug-induced effect, cell count (OVCAR-3 cells [2]): significantly amplified
sensitivity to drug (cell count dose response) (OVCAR-3 cells [2]; 72 h): highest sensitivity
interaction index (Ii), 95% confidence interval (A2780 cells [3]; [9]): smaller than 1
type of TTFields-drug interaction (measured vs calculated additive curve) (A2780 cells [3]; [10]): tendency to synergism; also recorded: additive; also recorded: tendency to synergy
type of TTFields-drug interaction, overall effect (cell count and clonogenic effect) (A2780 cells [3]; [10]): Signs of synergy
type of TTFields-drug interaction, cytotoxic effect (cell count) (A2780 cells [3]; TTFields 200 kHz, 1 V/cm RMS, 72 h, BRCA wt): Signs of synergy
effect of TTFields on the drug-induced overall effect (cell count x colony formation) (A2780 cells [3]): significantly elevated
effect of TTFields on the drug-induced effect, cell count (A2780 cells [3]): significantly amplified
effect of TTFields on the apoptotic effect / apoptotic cell fraction (A2780 cells [4]): enhanced; also recorded: increases
effect of TTFields on the apoptotic effect / apoptotic cell fraction (A2780cis cells [5]): increases
cell cycle arrest, drug alone (G2/M cell cycle arrest): induced G2/M arrest
level of TTFields-drug synergy (A2780cis cells [6]; A2780cis relative to A2780 cells, by Ii): higher levels
interaction index (Ii), 95% confidence interval (A2780cis cells [6]; [9]): smaller than 1
effect of TTFields on the drug-induced overall effect (cell count x colony formation) (A2780cis cells [6]): significantly elevated
effect of TTFields on the drug-induced effect, cell count (A2780cis cells [6]): significantly amplified
sensitivity to drug (cell count dose response) (A2780cis cells [6]; drug alone): lower response; also recorded: highest resistance
decreased sensitivity of A2780cis cells compared with wild type A2780 cells (A2780cis cells [6]; drug alone, titration): 5 fold
effect of TTFields on sensitivity to / effect of the drug (A2780cis cells [6]): increased the sensitivity
type of TTFields-drug interaction (measured vs calculated additive curve) (A2780cis cells [6]): synergistic; also recorded: synergistically; also recorded: tendency to synergy
effect of TTFields on the apoptotic effect / apoptotic cell fraction (OVCAR-3 cells [7]): enhanced; also recorded: increases

NC(=O)c1cccc2cn(-c3ccc([C@@H]4CCCNC4)cc3)nc12 [niraparib]
levels of γH2AX foci, monotherapy [1, 8]: mild elevation
type of TTFields-drug interaction, cytotoxic effect (cell count) (OVCAR-3 cells [2]): additively
type of TTFields-drug interaction (measured vs calculated additive curve) (OVCAR-3 cells [2]; HRD cells, TTFields 200 kHz, 1 V/cm RMS, 72 h): additively
type of TTFields-drug interaction, overall effect (cell count and clonogenic effect) (OVCAR-3 cells [2]; [10]): additive
effect of TTFields on the drug-induced overall effect (cell count x colony formation) (OVCAR-3 cells [2]): significantly augmented
effect of TTFields on the drug-induced effect, cell count (OVCAR-3 cells [2]): significantly augmented
sensitivity to drug (cell count dose response) (OVCAR-3 cells [2]; 72 h): highest sensitivity
type of TTFields-drug interaction, cytotoxic effect (cell count) (A2780 cells [3]): synergistically
level of TTFields-drug synergy (A2780 cells [3]; A2780 relative to A2780cis cells, by Ii): higher
type of TTFields-drug interaction (measured vs calculated additive curve) (A2780 cells [3]; [10]): high synergy
type of TTFields-drug interaction, overall effect (cell count and clonogenic effect) (A2780 cells [3]; [10]): synergistically
effect of TTFields on the drug-induced overall effect (cell count x colony formation) (A2780 cells [3]): significantly augmented
effect of TTFields on the drug-induced effect, cell count (A2780 cells [3]): significantly augmented
effect of TTFields on the apoptotic effect / apoptotic cell fraction (A2780 cells [4]): enhanced; also recorded: elevation
effect of TTFields on the apoptotic effect / apoptotic cell fraction (A2780cis cells [5]): elevation
cell cycle arrest, drug alone (G2/M cell cycle arrest): induced G2/M arrest
effect of TTFields on the drug-induced overall effect (cell count x colony formation) (A2780cis cells [6]): significantly augmented
effect of TTFields on the drug-induced effect, cell count (A2780cis cells [6]): significantly augmented
sensitivity to drug (cell count dose response) (A2780cis cells [6]; drug alone): highest resistance
effect of TTFields on sensitivity to / effect of the drug (A2780cis cells [6]): increased the sensitivity
type of TTFields-drug interaction (measured vs calculated additive curve) (A2780cis cells [6]): tendency to synergy
effect of TTFields on the apoptotic effect / apoptotic cell fraction (OVCAR-3 cells [7]): enhanced; also recorded: elevation
